Laboratory results reported in PMC10377034, “Syntheses of 25-Adamantyl-25-alkyl-2-methylidene-1α,25-dihydroxyvitamin D3 Derivatives with Structure–Function Studies of Antagonistic and Agonistic Active Vitamin D Analogs” (Biomolecules, 2023).
Like-named read-outs stand apart in the source and are kept apart here.

Tests used:
[1] = target: T1, VDR with NCoR (Homo sapiens, UniProt P11473); assay: Mammalian two-hybrid assay, dissociation of NCoR from the VDR
T1 sequence (P11473 1-427): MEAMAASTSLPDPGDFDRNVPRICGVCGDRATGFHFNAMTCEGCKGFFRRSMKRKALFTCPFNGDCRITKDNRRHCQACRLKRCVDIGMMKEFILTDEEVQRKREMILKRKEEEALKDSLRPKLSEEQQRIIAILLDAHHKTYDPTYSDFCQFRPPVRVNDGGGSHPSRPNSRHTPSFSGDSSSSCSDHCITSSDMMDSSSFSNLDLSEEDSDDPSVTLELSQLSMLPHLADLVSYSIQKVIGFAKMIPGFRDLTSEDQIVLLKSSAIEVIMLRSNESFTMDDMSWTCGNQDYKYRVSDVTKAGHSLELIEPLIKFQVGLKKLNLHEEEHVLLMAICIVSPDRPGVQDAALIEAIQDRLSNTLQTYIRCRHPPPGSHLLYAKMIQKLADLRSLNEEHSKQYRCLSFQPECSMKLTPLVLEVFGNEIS

[2] = test system: CYP24A1 expression in all cells (HEK293, SW480, U937, HaCaT, MG63, H292); assay: CYP24A1 expression (RT-qPCR), all cells tested; conditions: 100 nM, 24 h
[3] = target: T2, VDR with SRC-1 (Homo sapiens, UniProt P11473); assay: Mammalian two-hybrid assay, VDR binding to SRC-1
T2 sequence (P11473 1-427): T1 sequence (P11473 1-427)
T2 sequence (Q15788 595-771 partner limits assumed): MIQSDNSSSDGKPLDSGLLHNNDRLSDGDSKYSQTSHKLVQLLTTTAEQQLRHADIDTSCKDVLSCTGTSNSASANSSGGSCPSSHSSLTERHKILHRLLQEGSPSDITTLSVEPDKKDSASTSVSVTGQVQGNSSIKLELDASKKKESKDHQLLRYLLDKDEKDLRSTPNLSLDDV

[4] = target: T3, VDR with RXRα (Homo sapiens, UniProt P11473); assay: Mammalian two-hybrid assay, interaction of the VDR with RXRα
T3 sequence (P11473 1-427): T1 sequence (P11473 1-427)
T3 sequence (P19793 1-462 partner): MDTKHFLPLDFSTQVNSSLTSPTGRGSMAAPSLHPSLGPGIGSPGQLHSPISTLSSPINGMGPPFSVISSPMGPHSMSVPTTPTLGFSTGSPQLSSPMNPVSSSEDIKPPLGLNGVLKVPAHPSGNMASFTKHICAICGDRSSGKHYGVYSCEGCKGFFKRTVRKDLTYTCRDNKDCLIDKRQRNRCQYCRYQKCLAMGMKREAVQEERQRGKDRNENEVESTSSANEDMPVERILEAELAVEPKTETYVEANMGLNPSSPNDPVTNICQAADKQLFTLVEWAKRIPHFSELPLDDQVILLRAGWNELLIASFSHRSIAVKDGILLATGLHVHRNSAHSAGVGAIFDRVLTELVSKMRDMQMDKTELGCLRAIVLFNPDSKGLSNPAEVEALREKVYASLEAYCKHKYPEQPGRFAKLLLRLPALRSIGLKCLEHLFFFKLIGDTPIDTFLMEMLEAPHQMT

[5] = test system: human dedifferentiated fat (DFAT) cells; assay: Osteogenic differentiation assay: ALP activity in human DFAT cells; type: cell-based; conditions: osteogenic medium, 100 nM, 7 days, natural hormone 1 = 100%
Description: Mature adipocytes from the adipose tissue of mammals such as humans and rodents can be dedifferentiated into pluripotent cells using ceiling culture. Dedifferentiated fat (DFAT) cells have potential applications in both regenerative medicine and injury healing, as well as mesenchymal stem cells, embryonic stem cells, and induced pluripotent stem cells. The osteogenic activity of vitamin D derivatives was assessed based on alkaline phosphatase (ALP) activity.
Samples of human subcutaneous adipose tissue were obtained from patients who underwent surgery in the Department of Pediatric Surgery at Nihon University Itabashi Hospital (Tokyo, Japan). The patients gave their written informed consent, and the Ethics Committee of Nihon University School of Medicine approved this study. We prepared dedifferentiated fat (DFAT) cells using the ceiling culture method, as described previously. Briefly, the adipose tissue (approximately 1 g) was cut into small pieces and digested with a 0.1% type I collagenase solution (Koken Co., Ltd., Tokyo, Japan). […] The cells that adhered to the upper surface of the flasks were cultured for conversion to dedifferentiated fat cells. […] Cells at passages 2–4 were used for differentiation experiments.
Cells were grown to confluency in 24-well plates and incubated for a week in DMEM containing 10% FBS, 100 nM dexamethasone (Merk), 10 mM β-glycerophosphate (Merk), and […] L-ascorbic acid-2-phosphate (Merk), with 100 nM of each compound. The induction medium was replaced on day 4. The alkaline phosphatase (ALP) activity in the cell lysates was determined on day 7 with a lab assay ALP kit (Fujifilm wako). The total protein content was determined with the BCA protein assay kit (Thermo Fisher Scientific). ALP levels were normalized to the total protein content.

[6] = target: T4, hVDR (Homo sapiens, UniProt P11473); assay: VDR transactivation luciferase reporter assay in HEK293 cells (SPP×3-tk-LUC); type: cell-based; conditions: for Transcriptional activity efficacy: 1,25(OH)2D3 = 100%; for Emax: read-out: Transcriptional Activity % Efficacy of That of 1 (converted)
T4 construct: expressed in transfected cells; host or cells: HEK293
T4 sequence (P11473 1-427): T1 sequence (P11473 1-427)
Description: The transcriptional activity of the 25-alkylvitamin D analogs on the VDR was evaluated via a luciferase reporter assay in HEK293 human kidney cells transfected with an hVDR expression vector and a luciferase reporter with mouse osteopontin vitamin D response elements (VDREs, SPP×3-tk-LUC).
Transfections of 50 ng of TK-Spp × 3-LUC reporter plasmid, 10 ng of pCMX-β-galactosidase, and 15 ng of pCMX-VDR for each well of a 96-well plate were performed in HEK293 cells using the calcium phosphate coprecipitation method, as described previously. The mammalian two-hybrid assay for cofactor interaction with VDR used 50 ng of TK-MH100(UAS) × 3- LUC reporter plasmid, 10 ng of pCMX-β-galactosidase, 15 ng of pCMX-GAL4-RXRα, pCMX-GAL4-SRC1, or pCMX-GAL4-NCoR, and 15 ng of pCMX-VP16-VDR for each well of a 96-well plate. Luciferase and β-galactosidase activities were measured with a luminometer and a microplate reader (Molecular Devices, Sun Jose, CA, USA), respectively. Luciferase values were normalized to the internal β-galactosidase control.
HEK293 cells were co-transfected with TK-Spp × 3-LUC reporter plasmid and pCMX−VDR, and 8 h after transfection the cells were treated with several concentrations of each compound. After 24 h, the cells were harvested for assaying luciferase and β-galactosidase activity using a luminometer (Molecular Devices, Sunnyvale, CA, USA).

[7] = target: T5, recombinant hVDR-LBD (Homo sapiens, UniProt P11473); conditions: for fold lower activity of rapidly eluting epimer than the other 25-epimer: affinity for human VDR, within each 25-epimer pair; for VDR affinity, % of that of 1,25(OH)2D3: relative to 1,25(OH)2D3
T5 sequence (P11473 140-427): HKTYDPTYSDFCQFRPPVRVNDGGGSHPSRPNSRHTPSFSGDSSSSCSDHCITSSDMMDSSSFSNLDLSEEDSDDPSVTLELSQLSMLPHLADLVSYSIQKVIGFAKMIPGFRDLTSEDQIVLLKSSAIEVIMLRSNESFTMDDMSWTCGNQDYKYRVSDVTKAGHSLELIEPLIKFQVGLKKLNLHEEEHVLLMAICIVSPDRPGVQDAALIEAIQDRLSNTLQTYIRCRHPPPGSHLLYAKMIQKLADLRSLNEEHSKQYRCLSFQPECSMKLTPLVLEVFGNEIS

[8] = target: T5, recombinant hVDR-LBD; assay: biochemical
[9] = test system: CYP24A1 expression in SW480 cells; assay: CYP24A1 expression (RT-qPCR) in SW480 cells; conditions: SW480 intestine cells, 100 nM, 24 h
[10] = test system: CYP24A1 expression in HEK293 cells; assay: CYP24A1 expression (RT-qPCR) in HEK293 cells; conditions: HEK293 kidney cells, 100 nM, 24 h
[11] = test system: CYP24A1 expression in U937 cells; assay: CYP24A1 expression (RT-qPCR) in U937 cells; conditions: U937 blood cells, 100 nM, 24 h
[12] = test system: CYP24A1 expression in HaCaT cells; assay: CYP24A1 expression (RT-qPCR) in HaCaT cells; conditions: HaCaT skin cells, 100 nM, 24 h
[13] = test system: CYP24A1 expression in H292 cells; assay: CYP24A1 expression (RT-qPCR) in H292 cells; conditions: H292 lung cells, 100 nM, 24 h
[14] = test system: CYP24A1 expression in MG63 cells; assay: CYP24A1 expression (RT-qPCR) in MG63 cells; conditions: MG63 bone cells, 100 nM, 24 h
[15] = read-out: Transcriptional activity EC50
[16] = this study, read-out: Transcriptional Activity EC50

Compound	IC50 [1]	CYP24A1 expression activity in all cells [2]	EC50 [3]	EC50 [4]	ALP activity [5]	Transcriptional activity efficacy [6]	EC50 [6, 15]	Emax ([6]; this study)	EC50 [6, 16]	fold lower activity of rapidly eluting epimer than the other 25-epimer [7]	VDR affinity, % of that of 1,25(OH)2D3 [7]	IC50 [8]	CYP24A1 expression relative to natural hormone 1 [9]	CYP24A1 expression relative to natural hormone 1 [10]	CYP24A1 expression relative to natural hormone 1 [11]	CYP24A1 expression relative to natural hormone 1 [12]	CYP24A1 expression relative to natural hormone 1 [13]	CYP24A1 expression relative to natural hormone 1 [14]
C=C1[C@H](O)CC(=C/C=C2\CCC[C@]3(C)[C@@H]([C@H](C)CC#C[C@](C)(O)C45CC6CC(CC(C6)C4)C5)CC[C@@H]23)C[C@H]1O [ADKM1, (25R)-25-(1-Adamantyl)-1α,25-dihydroxy-2-methylidene-23-yne-19,27-dinorvitamin D3]	2.3 nM	10-50%	8.4 nM	1.1 nM	41%	78%	0.53 nM	78%	0.5 nM	5–11 fold	6%	6.2 nM						
C=C1[C@H](O)CC(=C/C=C2\CCC[C@]3(C)[C@@H]([C@H](C)CC#C[C@@](C)(O)C45CC6CC(CC(C6)C4)C5)CC[C@@H]23)C[C@H]1O [ADKM2, (25S)-25-(1-Adamantyl)-1α,25-dihydroxy-2-methylidene-23-yne-19,27-dinorvitamin D3]	0.4 nM		0.6 nM	0.1 nM	98.8%	101%		101%	0.2 nM		67%	0.6 nM	42.3%	33.2%	77.8%	85.6%	50.1%	63%
C=C1[C@H](O)CC(=C/C=C2\CCC[C@]3(C)[C@@H]([C@H](C)CC#C[C@@](O)(CC)C45CC6CC(CC(C6)C4)C5)CC[C@@H]23)C[C@H]1O [ADKM3, (25R)-25-(1-Adamantyl)-1a,25-dihydroxy-26-methyl-2-methylidene-23-yne-19,27-dinorvitamin D3]	6.3 nM	10-50%	10.2 nM	1.1 nM	40.4%	90%	2.33 nM	90%	2.3 nM	5–11 fold	6%	6.7 nM						
C=C1[C@H](O)CC(=C/C=C2\CCC[C@]3(C)[C@@H]([C@H](C)CC#C[C@](O)(CC)C45CC6CC(CC(C6)C4)C5)CC[C@@H]23)C[C@H]1O [ADKM4, (25S)-25-(1-Adamantyl)-1a,25-dihydroxy-26-methyl-2-methylidene-23-yne-19,27-dinorvitamin D3]	0.5 nM		1.2 nM	1.1 nM	72.6%	104%		104%	0.2 nM		27%	1.3 nM	126%	91.5%	85.1%	91.9%	113%	73.3%
C=C1[C@H](O)CC(=C/C=C2\CCC[C@]3(C)[C@@H]([C@H](C)CC#C[C@@](O)(CCCC)C45CC6CC(CC(C6)C4)C5)CC[C@@H]23)C[C@H]1O [ADKM5, (25R)-25-(1-Adamantyl)-1α,25-dihydroxy-2-methylidene-26-propyl-23-yne-19,27-dinorvitamin D3]	8.5 nM	10-50%	2.4 nM	5.2 nM	19%	83%	2.63 nM	83%	2.6 nM	5–11 fold	2%	23.4 nM						
